Laboratory results as given in patent US8344010B2, “Fused imidazole derivatives as TRPV3 antagonist” (Glenmark Pharmaceuticals S.A., priority 2008, dated 2013).

Molecular target: T1, Human TRPV3 (Homo sapiens, UniProt Q8NET8)
T1 construct: expressed in transfected cells; host or cells: CHO cells (selected with G-418)
T1 sequence (Q8NET8 1-790): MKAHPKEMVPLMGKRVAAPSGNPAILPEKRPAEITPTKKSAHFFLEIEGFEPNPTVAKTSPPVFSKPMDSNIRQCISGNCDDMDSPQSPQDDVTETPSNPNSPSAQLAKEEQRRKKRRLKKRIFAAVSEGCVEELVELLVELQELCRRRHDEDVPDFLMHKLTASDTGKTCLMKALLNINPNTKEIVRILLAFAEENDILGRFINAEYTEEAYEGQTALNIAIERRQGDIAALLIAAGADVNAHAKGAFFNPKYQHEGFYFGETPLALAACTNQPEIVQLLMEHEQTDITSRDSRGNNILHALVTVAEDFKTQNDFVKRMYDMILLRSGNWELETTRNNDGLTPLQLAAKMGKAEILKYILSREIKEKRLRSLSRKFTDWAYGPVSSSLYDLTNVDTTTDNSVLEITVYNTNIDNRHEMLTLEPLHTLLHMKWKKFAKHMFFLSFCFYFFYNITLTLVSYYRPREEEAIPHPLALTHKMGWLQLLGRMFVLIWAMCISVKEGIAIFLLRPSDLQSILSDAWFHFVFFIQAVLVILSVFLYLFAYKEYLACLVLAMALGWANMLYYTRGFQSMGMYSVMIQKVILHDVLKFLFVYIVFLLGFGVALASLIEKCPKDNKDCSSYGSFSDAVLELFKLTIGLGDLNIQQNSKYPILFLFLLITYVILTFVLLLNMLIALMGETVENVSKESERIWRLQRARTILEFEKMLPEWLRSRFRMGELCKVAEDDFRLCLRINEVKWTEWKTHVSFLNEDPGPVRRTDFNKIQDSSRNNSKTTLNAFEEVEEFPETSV
Assay: 45Calcium uptake assay: inhibition of 2-APB induced cellular uptake of radioactive calcium
Assay type: cell-based
Conditions: human TRPV3 expressing CHO cells, 2-APB 500 μM; for inhibition at 1 µM: 1 μM test compound, read-out: Percentage Inhibition (1 μM); for inhibition at 10 µM: 10 μM test compound, read-out: Percentage Inhibition (10 μM); for IC50: class symbol
In short: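 CHO cells expressing human TRPV3 were preincubated with compound for 10 min (0.5% DMSO final), then given 500 μM 2-APB plus 5 μCi/ml 45Ca2+ for 4 min. Lysate radioactivity was counted by scintillation; responses as % of maximal without antagonist, with IC50 by nonlinear regression.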

Row | SMILES | inhibition at 1 µM [%] | inhibition at 10 µM [%] | IC50 [nM]
1 | CCCCCOc1c(/C=C/c2nc3c(F)c(F)c(F)cc3n2-c2ccc(C#N)cn2)cccc1OC [Example 81, 6-{2-[(E)-2-(2-pentyloxy-3-methoxyphenyl)vinyl]-4,5,6-trifluoro-1H-benzimidazol-1-yl}nicotinonitrile] | 90.7 | 95.7 | < 50
2 | CCCCCOc1c(/C=C/c2nc3cc(F)c(F)cc3n2-c2ccc(C#N)cn2)cccc1OC(F)F [Example 82, 6-(2-{(E)-2-[3-(Difluoromethoxy)-2-pentyloxyphenyl]vinyl}-5,6-difluoro-1H-benzimidazol-1-yl)nicotinonitrile] | 97 | 98.9 | 50 to 100
3 | N#Cc1ccc(-n2c(/C=C/c3cccc(OC(F)F)c3OCC3CCC3)nc3cc(F)c(F)cc32)nc1 [Example 83, 6-(2-{(E)-2-[2-(Cyclobutylmethoxy)-3-difluoromethoxyphenyl]vinyl}-5,6-difluoro-1H-benzimidazol-1-yl)nicotinonitrile] | 96.7 | 97.7 | < 50
4 | N#Cc1ccc(-n2c(/C=C/c3cccc(OC(F)F)c3OC3CCCC3)nc3cc(F)c(F)cc32)nc1 [Example 84, 6-(2-{(E)-2-[2-(Cyclopentyloxy)-3-difluoromethoxyphenyl-]vinyl}-5,6-difluoro-1H-benzimidazol-1-yl)nicotinonitrile] | 98.4 | 99.3 | < 50
5 | CCCCOc1c(/C=C/c2nc3ccccc3n2-c2ccc(C(F)(F)F)cn2)cccc1OC [Example 85, 2-[(E)-2-(2-butoxy-3-methoxyphenyl)vinyl]-1-(5-trifluoromethylpyridin-2-yl)-1H-benzimidazole] | 71.1 | 90.2 | 100 to 500
6 | CCCCOc1c(/C=C/c2nc3cccnc3n2-c2ccc(C#N)cn2)cccc1OC [Example 86, 6-{2-[(E)-2-(2-Butoxy-3-methoxyphenyl)vinyl]-3H-imidazo[4,5-b]pyridin-3-yl}nicotinonitrile] | 92.6 | 95.2 | 100 to 500
7 | CCCCCOc1c(/C=C/c2nc3cccnc3n2-c2ccc(C#N)cn2)cccc1OC [Example 87, 6-{2-[(E)-2-(2-Pentyloxy-3-methoxyphenyl)vinyl]-3H-imidazo[4,5-b]pyridin-3-yl}nicotinonitrile] | 95.7 | 99.1 | 100 to 500
8 | CCCCCOc1c(/C=C/c2nc3ccc[n+]([O-])c3n2-c2ccc(C#N)cn2)cccc1OC [Example 88, 6(2-{(E)-2-[3-methoxy-2-(pentyloxy)phenyl]ethenyl}-4-oxido-3H-imidazo[4,5-b]pyridin-3-yl)pyridine-3-carbonitrile] | 25.1 | 71.1 | –
9 | COc1cccc(/C=C/c2nc3cccnc3n2-c2ccc(C#N)cn2)c1OCC1CC1 [Example 89, 6-{2-[(E)-2-(2-[Cyclopropylmethoxy]-3-methoxyphenyl)vinyl]-3H-imidazo[4,5-b]pyridin-3-yl}nicotinonitrile] | 74.2 | 96.6 | 100 to 500
10 | COc1cccc(/C=C/c2nc3cccnc3n2-c2ccc(C#N)cn2)c1OCC1CCC1 [Example 90, 6-[2-{(E)-2-[2-(Cyclobutylmethoxy)-3-methoxyphenyl]vinyl}-3H-imidazo[4,5-b]pyridine-3-yl]nicotinonitrile] | 93.3 | 98.2 | 50 to 100
11 | COc1cccc(/C=C/c2nc3cccnc3n2-c2ccc(C#N)cn2)c1OC1CCCC1 [Example 91, 6-{2-[(E)-2-(2-[Cyclopentyloxy]-3-methoxyphenyl)vinyl]-3H-imidazo[4,5-b]pyridin-3-yl}nicotinonitrile] | 95.3 | 99.7 | 100 to 500
